From patent US6455567B1, “Method of treatment” (Pfizer Inc., priority 1994, dated 2002)

Columns and labels:
[1] = tested on: vasodilation in the rat hind paw; assay: Vasodilation (skin blood flow) in the rat hind paw after saphenous nerve stimulation, method of Kajekar et al; format: in vivo; settings: intravenous
Experimental: The test compound is administered intravenously at different doses and the results are recorded as the change in the increase in skin blood flow.

[2] = tested on: oedema in the rat hind paw; settings: intravenous, saphenous nerve stimulation; cited from earlier work
[3] = tested on: neurogenic inflammation in dura mater; settings: in vivo; cited from earlier work

SMILES	lowest dose with significant effect on the increase in skin blood flow (vasodilation) [1]	lowest administered amount with significant effect on ratio of plasma extravasation in the stimulated/unstimulated hind paw [2]	potency against neurogenic inflammation in dura mater [3]
CNS(=O)(=O)Cc1ccc2[nH]cc(C[C@H]3CCCN3C)c2c1 [CP-122,288, (R)-5-(methylaminosulphonylmethyl)-3-(N-methylpyrrolidin-2-ylmethyl)-1H-indole]	2e-12 mol/kg	2e-14 mol/kg	exhibit potency against neurogenic inflammation
CNS(=O)(=O)Cc1ccc2[nH]cc(C[C@H]3CCCN3)c2c1 [CP-122,638, (R)-5-(methylaminosulphonylmethyl)-3-(pyrrolidin-2-ylmethyl)-1H-indole]	–	–	exhibit potency against neurogenic inflammation
